Columns and labels:
[1] = Solubility in water (vessel cleaning note); type: physicochemical; conditions: Stage 3 vessel cleaning information
[2] = hashed area of FIG. 2; cited from earlier work
humans = conditions: 0.05 mg/kg to 0.4 mg/kg; bolus injections or prolonged infusions; only mild to moderate adverse effects; cited from earlier work
[3] = tested on: individuals who have ingested 5-MeO-DMT; conditions: cited from earlier work
[4] = cited from earlier work
[5] = self-report, uncontrolled setting, Davis et al. 2018

Question: For `CN(C)CCc1c[nH]c2ccccc12.O=C(O)/C=C/C(=O)O` [API, N,N-DMT fumarate], which Solubility in water [1] is on record?
Answer: API highly soluble

Question: What does the source list for `CN(C)CCc1c[nH]c2ccccc12` [DMT, N, N-dimethyltryptamine]?
Answer: Effect site concentrations experienced as full dissociation from the external world [2]: > 60 ng/mL; Tolerability (humans): well-tolerated

Question: What does the source list for `COc1ccc2[nH]cc(CCN(C)C)c2c1` [Mixture 5-MeO-DMT, 5-methoxy-N, N-dimethyltryptamine]?
Answer: Individuals with alcoholism or hazardous drinking reporting improvements ([3]; n=75 out of 113): 66%; Participants indicating symptoms improved: anxiety [3, 5]: 69%; Participants indicating symptoms improved: depression [3, 5]: 77%; Participants indicating symptoms improved: post-traumatic stress disorder [3, 5]: 79%; Half-life ([4]; rapidly metabolized, H-W. Shen et al. 2010): 12 to 19 min; Oral bioavailability ([4]; without coadministration alongside a monoamine oxidase inhibitor): not orally bioavailable
